Experiment [1] has as its target T1, NS5B from the BK strain (genotype 1b) (Hepatitis C virus genotype 1b, UniProt P26663).
T1 construct: NS5B from the BK strain (genotype 1b) is expressed in E coli as a protein in which the 21 C-terminal amino acids are replaced; made in house; host or cells: E. coli
The experiment can be described thus: Hepatitis C polymerase (NS5B, BK strain) inhibition, radioactive filter assay. Type of experiment: biochemical. Conditions: NS5B BK strain (genotype 1b). From the text:
(§1) The ability of the compounds of the present invention to inhibit Hepatitis C Polymerase was established by the following experimental procedure:
NS5B from the BK strain (genotype 1b) is expressed in E coli as a protein in which the 21 C-terminal amino acids are replaced with a short linker and a hexahistidine tag ([…]). The purified protein is mixed with radioactive nucleotides and allowed to replicate a heteropolymeric RNA substrate, primed by an endogenous short hairpin, resulting in an approximately 760 nt product. The radioactive product is captured on a filter and quantitated after removal of the unincorporated nucleotides.
(§2) • 0.5M Na Phosphate buffer. Per liter, weigh 134 gr Na2HPO4.7H2O, add water to 900 ml. Adjust pH to 7.0 with phosphoric acid. Top off with water to 1 L. • Dilute nucleotides 1:1000 to 10 μM (GTP and CTP) or 1:100 to 100 μM (ATP and UTP) into RNase free water. Procedure: • (1) Compounds 10 μl at […] in 15% dimethylsulfoxide (DMSO) When starting from 100 μg/ml compound stock in 1% DMSO: Dispense 5 μl 30% DMSO per well Dispense 5 μl compound (100 μg/ml) per well. When starting from 50 μg/ml compound stock in 15% DMSO: Add 10 μl compound per well.
(§3) Add 20 μl enzyme mix into each well of the assay plate. Incubate compound and enzyme at room temperature for 15 minutes • (3) Template mix—prepare ahead
(§4) Spin down a tube of RNA (5 μg/tube stored in 75% ethanol and 0.3 M sodium acetate) in a microcentrifuge for 20 minutes at 4° C. One tube is enough for 1-1.5 plates. Remove as much ethanol from the tube as possible by inverting the tube. Be gentle, pellet RNA may not adhere to the tube. Vacuum dry the RNA. Resuspend the RNA by adding 1 ml of DEPC water, close the cap of the tube tightly. To dissolve RNA, incubate RNA solution on ice for ˜60 minutes and gently vortex. Spin briefly to ensure all RNA solution is down to the bottom of the tube before opening cap. Gently transfer RNA solution into a 5 ml or larger tube. Add another 3 ml of DEPC water (total 4 ml of volume).
(§5) Add the following volumes of reagents
(§6) Add 20 μl template mix per reaction (i.e. 20 ng of pOF per reaction or ˜3 nM) • (4) Incubate reaction at room temperature (22-25° C.) for 2 hours. • (5) Stop reaction by adding 50 μl of 170 mM EDTA.
(§7) Final concentration of EDTA is 85 mM. • (6) Prewet filters of Millipore multiscreen assay plate by adding 200 μl of 0.5 M sodium phosphate buffer, pH 7.0 into each well. Let stand at room temperature for 2-3 minutes. • (7) Place the multiscreen filter plate onto a Millipore Manifold and turn on vacuum to allow buffer to flow through. Turn off vacuum. Transfer 80 μl of the reaction product into each well of the filter plate. Let stand for 2-3 minutes. Turn on vacuum to filter reaction product. • (8) Turn off vacuum. Add 200 μl of 0.5 M sodium phosphate buffer, pH 7.0 into each well to wash filter. Turn on vacuum.
(§8) Repeat step (8) three more times. • (9) Remove polypropylene bottom. Spot dry filter at the bottom with paper towel. Air dry filter plate on a bench for 1 hour. Add 40 μl Super Mix scintillant. Seal top of the plate with a tape. Place plate into a Packard carrier or micro-beta carrier. • (10) Count plate using a Packard Topcount or micro-beta counter. Count (for example using Program 10) for ^33P in Top count or ^33P program in micro-beta.
(§9) See, Ferrari et al. 1999. J. Virology 73:1649-1654: “Characterization of soluble Hepatitis C virus RNA-dependent RNA polymerase expressed in E. coli and Takamizawa et al. 1991” and J. Virology 65:1105-1113: “Structure and characterization of the Hepatitis C virus genome isolated from human carriers,” both references are hereby incorporated by reference.

Experiment [2] concerns the target BB7 RNA-dependent RNA polymerase hepatitis C virus protein (Con1 HCV sequence) (Hepatitis C virus genotype 1b, UniProt Q9WMX2). The experiment can be described thus: Hepatitis C polymerase (BB7) inhibition. Type of experiment: biochemical.
Source text: For purposes of this invention, the term “BB7” denotes an RNA-dependent RNA polymerase hepatitis C virus protein sequence which is derived from HCV replicon. A discussion of BB7 and related technology can be found in Blight, K. et al. (2000) Science 290:1972-1974. BB7 can be licensed from Apath, LLC (893 North Warson Road, Saint Louis Mo. 63141, USA). BB7 is also referred to as Con1 HCV sequence and discussions of Con1 can be found in the following references: Lohmann, V. et al. (1999) Science 285:110-113; Pietschmann, T. et al. (2001) J. Virol. […]:1252-1264; Lohmann, V. et al. (2001) J. Virol. 75:1437-1449.
as §1, §2, §3, §4, §5, §6, §7, §8, §9

Among the data in patent US20070219212A1, “Pyranouidole Derivatives and the Use Thereof for the Treatment of Hepatitis C Virus Infection or Disease” (priority 2004, published 2007) are IC50 values, retold here.

Like-named read-outs stand apart in the source and are kept apart here. Bounds are passed on as bounds.

Sequence of BB7 RNA-dependent RNA polymerase hepatitis C virus protein (Con1 HCV sequence) (Q9WMX2 2420-3010): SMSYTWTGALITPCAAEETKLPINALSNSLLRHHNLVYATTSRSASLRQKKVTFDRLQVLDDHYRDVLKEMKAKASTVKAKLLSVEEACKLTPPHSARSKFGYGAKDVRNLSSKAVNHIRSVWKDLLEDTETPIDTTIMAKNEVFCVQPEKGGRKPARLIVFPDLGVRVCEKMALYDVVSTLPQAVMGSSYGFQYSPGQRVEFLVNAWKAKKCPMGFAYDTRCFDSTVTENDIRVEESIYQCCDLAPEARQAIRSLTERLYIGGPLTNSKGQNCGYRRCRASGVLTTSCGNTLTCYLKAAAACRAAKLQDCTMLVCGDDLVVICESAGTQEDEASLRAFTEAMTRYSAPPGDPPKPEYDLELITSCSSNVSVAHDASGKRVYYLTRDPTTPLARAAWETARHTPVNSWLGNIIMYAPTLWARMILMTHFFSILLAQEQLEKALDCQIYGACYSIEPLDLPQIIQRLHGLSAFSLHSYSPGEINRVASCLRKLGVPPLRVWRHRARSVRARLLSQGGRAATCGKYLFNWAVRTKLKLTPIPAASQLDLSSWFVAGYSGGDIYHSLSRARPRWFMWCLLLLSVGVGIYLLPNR
T1 sequence (P26663 2420-2989): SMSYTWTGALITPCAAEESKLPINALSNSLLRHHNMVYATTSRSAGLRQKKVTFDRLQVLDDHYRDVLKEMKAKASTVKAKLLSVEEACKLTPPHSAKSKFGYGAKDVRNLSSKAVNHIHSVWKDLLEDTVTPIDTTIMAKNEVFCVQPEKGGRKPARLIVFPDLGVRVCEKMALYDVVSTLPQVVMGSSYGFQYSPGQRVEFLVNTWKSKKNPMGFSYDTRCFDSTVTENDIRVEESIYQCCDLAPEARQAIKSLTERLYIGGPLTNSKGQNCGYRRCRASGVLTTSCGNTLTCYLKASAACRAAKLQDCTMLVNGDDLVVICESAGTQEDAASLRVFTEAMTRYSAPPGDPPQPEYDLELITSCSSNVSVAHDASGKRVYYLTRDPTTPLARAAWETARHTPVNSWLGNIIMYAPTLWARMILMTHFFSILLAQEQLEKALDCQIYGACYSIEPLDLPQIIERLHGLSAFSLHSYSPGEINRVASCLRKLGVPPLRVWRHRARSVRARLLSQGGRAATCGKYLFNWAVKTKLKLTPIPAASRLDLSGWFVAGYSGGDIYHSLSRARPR

Turning to `CCCC1(CC(=O)O)OCCc2c1[nH]c1c(C)c(COCc3sc(C)nc3C)cc(C#N)c21` (centres unmarked) [Example 19, [5-Cyano-7-(2,4-dimethyl-thiazol-5-ylmethoxymethyl)-8-methyl-1-propyl-1,3,4,9-tetrahydro-pyrano[3,4-b]indol-1-yl]-acetic acid], the IC50 in experiment [1] and in experiment [2] was 500 to 5000 nM throughout.

On to `CCCC1(CC(=O)O)OCCc2c1[nH]c1c(C)c(COc3ccccc3)cc(C#N)c21` (centres unmarked) [Example 20, (5-Cyano-8-methyl-7-phenoxymethyl-1-propyl-1,3,4,9-tetrahydro-pyrano[3,4-b]indol-1-yl)-acetic acid], for which the IC50 in experiment [1] and in experiment [2] was 500 to 5000 nM throughout.

In the case of `CCCC1(CC(=O)O)OCCc2c1[nH]c1c(C)c(COc3cccc(F)c3)cc(C#N)c21` (centres unmarked) [Example 21, [5-Cyano-7-(3-fluoro-phenoxymethyl)-8-methyl-1-propyl-1,3,4,9-tetrahydro-pyrano[3,4-b]indol-1-yl]-acetic acid], the IC50 in experiment [1] and in experiment [2] was below 500 nM each time.

Take `CCCC1(CC(=O)O)OCCc2c1[nH]c1c(C)c(OCC3CC3)cc(C#N)c21` (centres unmarked) [Example 22, (5-Cyano-7-cyclopropylmethoxy-8-methyl-1-propyl-1,3,4,9-tetrahydro-pyrano[3,4-b]indol-1-yl)-acetic acid]: the IC50 in experiment [1] and in experiment [2] was below 500 nM each time.

With `CCC[C@]1(CC(=O)O)OCCc2c1[nH]c1c(C)c(OCc3cc(C)on3)cc(C#N)c21` [Example 23, (R)-[5-Cyano-8-methyl-7-(5-methyl-isoxazol-3-ylmethoxy)-1-propyl-1,3,4,9-tetrahydro-pyrano[3,4-b]indol-1-yl]-acetic acid], the IC50 in experiment [1] and in experiment [2] was below 500 nM each time.

`CCCC1(CC(=O)O)OCCc2c1[nH]c1c(C)c(OCc3ccncc3)cc(C#N)c21` (centres unmarked) [Example 24, [5-Cyano-8-methyl-1-propyl-7-(pyridin-4-ylmethoxy)-1,3,4,9-tetrahydro-pyrano[3,4-b]indol-1-yl]-acetic acid]: the IC50 in experiment [1] and in experiment [2] was below 500 nM in each case.

In the case of `CCC[C@]1(CC(=O)O)OCCc2c1[nH]c1c(C)c(OCc3cc(C)n(C)n3)cc(C#N)c21` [Example 25, (R)-[5-Cyano-7-(1,5-dimethyl-1H-pyrazol-3-ylmethoxy)-8-methyl-1-propyl-1,3,4,9-tetrahydro-pyrano[3,4-b]indol-1-yl]-acetic acid], the IC50 in experiment [1] and in experiment [2] was below 500 nM in each case.

Turning to `CCC[C@]1(CC(=O)O)OCCc2c1[nH]c1c(C)c(OCCOC(C)C)cc(C#N)c21` [Example 26, (R)-[5-Cyano-7-(2-isopropoxy-ethoxy)-8-methyl-1-propyl-1,3,4,9-tetrahydro-pyrano[3,4-b]indol-1-yl]-acetic acid], the IC50 in experiment [1] and in experiment [2] was below 500 nM throughout.

In the case of `CCC[C@]1(CC(=O)O)OCCc2c1[nH]c1c(C)c(OCCCOC)cc(C#N)c21` [Example 27, (R)-[5-Cyano-7-(3-methoxy-propoxy)-8-methyl-1-propyl-1,3,4,9-tetrahydro-pyrano[3,4-b]indol-1-yl]-acetic acid], the concentration for half-maximal inhibition (IC50) in experiment [1] and in experiment [2] was below 500 nM each time.

In the case of `CCC[C@]1(CC(=O)O)OCCc2c1[nH]c1c(C)c(OC[C@@H](C)OC)cc(C#N)c21` [Example 28, (1R,2′R)-[5-Cyano-7-(2-methoxy-propoxy)-8-methyl-1-propyl-1,3,4,9-tetrahydro-pyrano[3,4-b]indol-1-yl]-acetic acid], the IC50 in experiment [1] and in experiment [2] was below 500 nM throughout.

In the case of `CCC[C@]1(CC(=O)O)OCCc2c1[nH]c1c(C)c(OCc3nnc(C)s3)cc(C#N)c21` [Example 29, (R)-[5-Cyano-8-methyl-7-(5-methyl-[1,3,4]thiadiazol-2-ylmethoxy)-1-propyl-1,3,4,9-tetrahydro-pyrano[3,4-b]indol-1-yl]-acetic acid], the IC50 in experiment [1] and in experiment [2] was below 500 nM in each case.

As for `CCC[C@]1(CC(=O)O)OCCc2c1[nH]c1c(C)c(OCc3nsc(N(C)C)n3)cc(C#N)c21` [Example 30, (R)-[5-Cyano-7-(5-dimethylamino-[1,2,4]thiadiazol-3-ylmethoxy)-8-methyl-1-propyl-1,3,4,9-tetrahydro-pyrano[3,4-b]indol-1-yl]-acetic acid], the IC50 in experiment [1] and in experiment [2] was below 500 nM in each case.

On to `CCCC1(C(=O)O)OCCc2c1[nH]c1c(C)c(OCCOC)cc(C#N)c21` (centres unmarked) [Example 31, 5-Cyano-7-(2-methoxy-ethoxy)-8-methyl-1-propyl-1,3,4,9-tetrahydro-pyrano[3,4,-b]indole-1-carboxylic acid], for which the IC50 in experiment [1] and in experiment [2] was 500 to 5000 nM throughout.

Consider `CCCC1(C(=O)O)OCCc2c1[nH]c1c(C)c(OCc3cc(C)on3)cc(C#N)c21` (centres unmarked) [Example 32, 5-Cyano-8-methyl-7-(5-methyl-isoxazol-3-ylmethoxy)-1-propyl-1,3,4,9-tetrahydro-pyrano[3,4,-b]indole-1-carboxylic acid], for which the IC50 in experiment [1] and in experiment [2] was below 500 nM each time.

In the case of `CCC(C)C1(CC(=O)O)OCCc2c1[nH]c1c(C)c(OCc3cc(C)n(C)n3)cc(C#N)c21` [Example 36, (1R*,10S)-[1-sec-Butyl-5-cyano-7-(1,5-dimethyl-1H-pyrazol-3-ylmethoxy)-8-methyl-1,3,4,9-tetrahydro-pyrano[3,4-b]indol-1-yl]-acetic acid], the IC50 in experiment [1] and in experiment [2] was below 500 nM each time.

For the compound `CCCC1(C(=O)O)OCCc2c1[nH]c1c(C)c(OCc3ccncc3)cc(C#N)c21` (centres unmarked) [Example 37], the IC50 in experiment [1] and in experiment [2] was below 500 nM throughout.

As for `CCCC1(CC(=O)O)OCCc2c1[nH]c1c(C)c(OCc3ccncc3)cc(C#N)c21` (centres unmarked) [Example 38], the IC50 (in general, the concentration that gives 50% inhibition) is below 500 nM in experiment [1] and below 500 nM in experiment [2] (read-out: BB7 IC50, BB7 (Con1) NS5B).

Regarding `CCCC1(CC(=O)O)OCCc2c1[nH]c1c(C)c(O[C@@H]3CCOC3)cc(C#N)c21` (some centres unmarked) [Example 39], the IC50 in experiment [1] is below 500 nM; in experiment [2] (BB7 (Con1) NS5B, read-out: BB7 IC50) it was below 500 nM.

For the compound `CCCC1(CC(=O)O)OCCc2c1[nH]c1c(C)c(O[C@H]3CCOC3)cc(C#N)c21` (some centres unmarked) [Example 40], the IC50 in experiment [1] and in experiment [2] was below 500 nM each time.

Take `CCCC1(CC(=O)O)OCCc2c1[nH]c1c(C)c(OCc3cccnc3)cc(C#N)c21` (centres unmarked) [Example 41]: the IC50 in experiment [1] and in experiment [2] was below 500 nM in each case.

As to `CCCC1(CC(=O)O)OCCc2c1[nH]c1c(C)c(O[C@@H]3CCNC3)cc(C#N)c21` (some centres unmarked) [Example 42], the IC50 in experiment [1] is below 500 nM; in experiment [2], 500 to 5000 nM.

For the compound `CCCC1(CC(=O)O)OCCc2c1[nH]c1c(C)c(OCCOC)cc(C#N)c21` (centres unmarked) [Example 43], the IC50 in experiment [1] and in experiment [2] was below 500 nM throughout.
